Results from patent US20200253979A1, “THERAPEUTIC METHODS RELATING TO HSP90 INHIBITORS” (AI Therapeutics, Inc., priority 2017, published 2020).

Columns and labels:
MV-4-11 cells (FLT3-ITD) = assay: CellTiter-Glo cell viability (single agent and combination); assay type: cell-based; conditions: MV-4-11, MPC-0767 1 μM, 72 hours
Experimental: Three cell lines which harbor FLT3-ITD were used for the drug combination studies (MV-4-11, MOLM-13, and MOLM-14).
Cells were treated with the drugs (single agent or combination) for 72 hours. Drug combination activity was determined by first measuring cell viability with CellTiter-Glo®, followed by the calculation of the EC50 corresponding to single agent activity, using the R DRC package (R Core Team, 2017). The combination index (CI) values were computed using the Chou-Talalay method (Chou T, Cancer Research., 2010 70(2): 440-6.), based on the viability of each drug alone and in combination, across all concentrations tested. In brief, CI was defined as: […]
Loss of function mutations of KDM6A are observed in FLT3-ITD AML (Garg et al., 2015 Blood 126 (22):2491-501). […] To therapeutically exploit this finding, we hypothesized that inhibiting EZH2, the histone H3K27 methyltransferase that functionally opposes KDM6A, would enhance sensitivity to MPC-0767. To test this hypothesis, a FLT3-ITD cell line (MV-4-11) was used and treated with either of the two clinical stage EZH2 inhibitors, EPZ-6438 and CPI-1205, at 8 different concentrations for 4 days. Following this time, cells were counted, reseeded and treated with 8 concentrations of EZH2 inhibitor alone, 8 concentrations of MPC-0767 alone, or the combination of the two (64 total combinations).

[1] = system: phospho-ERK (pERK) in MOLM-13 cells; assay: Phospho-ERK level; assay type: cell-based, human; conditions: MPC-0767 800 nM, ATO 625 nM or combination, 24 hours
From the text: We next explored whether the synergistic activity of MPC-0767 and ATO was due to a more complete abrogation of FLT3-ITD oncogenic signaling. […] After this time cells were harvested for the assessment of cell surface FLT3 expression by flow cytometry. To additionally measure the effects of abrogating FLT3, we assessed phospho-ERK (pERK) and phospho-S6 (pS6), as these are two known downstream effectors.

FLT3 WT in BaF3 cells = assay: Cell surface FLT3 in transfected BaF3 cells by flow cytometry; assay type: cell-based, murine; conditions: BaF3, 20-10000 nM, 24 hours
Experimental: (§1) We next sought to determine whether MPC-0767 can also promote the degradation of other FLT3 mutants that have been reported to confer resistance to FLT3 inhibitors. To do this, we again utilized the BaF3 murine cell line into which the following FLT3 mutants were transfected: FLT3 wild-type, FLT3-ITD, D835V, FLT3-ITD D835V, D835Y, FLT3-ITD D835Y, D835H, FLT3-ITD D835H, F691L, or FLT3-ITD F691L.
(§2) After puromycin selection, cells were treated with increasing concentrations of MPC-0767 (20-10000 nM) for 24 hours and then stained for cell surface expression of FLT3 (and mutants) and the median signal expression was quantified by flow cytometry.

[2] = system: FLT3 mutants in BaF3 cells; assay: as above; assay type: cell-based, murine; conditions: BaF3, cell surface expression, 24 hours
Experimental: as §1, §2

[3] = system: BaF3 cells harboring FLT3-ITD; assay: CellTiter-Glo cell viability; assay type: cell-based, murine; conditions: Mus musculus, 72 hours
Experimental: After this time cell viability was determined using CTG and EC50 values determined.
EC50 values were calculated using equation 1 (as described above).
BaF3 cells require the supplementation of IL-3 to activate the IL-3 receptor for growth. However, in BaF3 cells transfected with FLT3-ITD, cells no longer require IL3 as survival is solely driven by oncogenic FLT3 signaling.

[4] = system: PD-L1 on primary AML patient samples; assay: PD-L1 cell surface expression by flow cytometry; assay type: cell-based, human; conditions: 24 hours
Experimental: To study whether MPC-0767 blocks IFN-γ-induced PD-L1 expression, six AML patient samples harboring FLT3 WT (n=2) or FLT3-ITD (n=4) were treated with human IFN-γ (50 ng/ml) alone, MPC-0767 (1 μM) alone or the combination of the two for 24 hours. Cells were then harvested to assess PD-L1 cell surface expression by flow cytometry. Cells were also stained with the AML blast markers CD34 or CD45 (to gate on the blast population) and a viability stain to gate on viable cells.

THP1 (THP-1) cells = assay: CellTiter-Glo cell viability (single agent and combination); assay type: cell-based; conditions: THP1, 72 h
[5] = system: PD-1+ Jurkat reporter cells with THP-1 AML cells; assay: Jurkat NFAT-luciferase reporter T cell activation with THP-1 cells; assay type: cell-based; conditions: THP-1 treated overnight with IFNγ and MPC-0767 1 μM or 2 uM
From the text: The addition of antibodies that block the PD-1/PD-L1 pathway stimulate an increased T cell response in vitro, in pre-clinical animal models, and in cancer patients. This can lead to tumor regressions or tumor clearance in patients. To examine MPC-0767 effects on PD-L1 and T cell activation, we used a model system in which PD-1+ Jurkat T cells express luciferase under the control of the NFAT promoter (Promega, hereafter referred to Jurkat reporter cells). When T cells are stimulated through the T cell receptor (TCR), activation of the NFAT pathway drives expression of luciferase.
We next determined whether MPC-0767 reduction of PD-L1 could increase T cell stimulation similar to anti-PD-L1 blocking antibodies. THP-1 cells were treated overnight with IFNγ in the presence or absence of MPC-0767 (1 μM or 2 uM). THP-1 cells were washed and a portion saved for flow cytometry analysis of PD-L1 expression. The remaining cells were incubated with Jurkat reporter cells and anti-CD3 (10 ng/ml) for 6 hours.

ML2 cells = assay: CellTiter-Glo cell viability (single agent and combination)
Experimental: To determine whether MPC-0767 is efficacious against non-FLT3-ITD AML cells, we tested a panel of FLT3-wild type (FLT3-WT) AML cell lines and primary AML blasts for sensitivity to MPC-0767. Cells were treated with MPC-0767 for 72 hours before determining cell viability using the CellTiter-Glo® assay. […] To test whether the combination of MPC-0767 was synergistic with ATO, we tested a panel of AML cell lines. The cell lines include those harboring FLT3-ITD (MOLM-13, MOLM-14 and MV-4-11) or FLT3 WT (ME-1, THP-1, OCI-AML-2, HL60, NOMO-1, TUR and ML-2).

In the case of `C[C@H](N)C(=O)O[C@@H](C)C(=O)N1CCC(CCn2c(Sc3cc4c(cc3Br)OCO4)nc3c(N)ncnc32)CC1` [MPC-0767], the “viability of KDM6A sgRNA cells vs non-targeting sgRNA” value (MV-4-11 cells (FLT3-ITD)) is reported as “conferred resistance to MPC-0767”, the pERK level [1] is reported as “mildly reduced” and the “cell surface expression of FLT3 WT” value (FLT3 WT in BaF3 cells) is reported as “reduced cell surface expression of FLT3 WT”. The “potency against FLT3 mutants compared to FLT3 WT” value [2] was “approximately 5 ×”, the EC50 [3] was 497 nM and the “basal PD-L1 cell surface expression” value ([4]; MPC-0767 1 μM alone) was “did not significantly reduce basal PD-L1 cell surface expression”. The “IFN-γ-induced PD-L1 cell surface expression” value ([4]; MPC-0767 1 μM with IFN-γ 50 ng/ml, P=0.04) was “significantly reduced the IFN-γ-induced PD-L1 cell surface expression”, the EC50 (THP1 (THP-1) cells; Homo sapiens, THP-1) was greater than 10000 nM and the “MPC-0767 Sensitivity” value (THP1 (THP-1) cells) was “Resistant (EC50 values above 1 μM considered resistant)”. For the same compound, the “inhibition of T cell activation” value [5] was “dose-dependently reduce inhibition of T cell activation”, the EC50 (ML2 cells; Homo sapiens, ML-2, 72 h) was 1030 nM and the “MPC-0767 Sensitivity” value (ML2 cells; ML2, 72 h) was “Resistant (EC50 values above 1 μM considered resistant)”.
